From patent US6667387B1, “HCV core peptides” (priority 1992, dated 2003)
Ends that are not written are not given here.

Columns and labels:
[1] = tested on: antibodies in sera from HCV-seropositive donors; assay: ELISA with HCV antibody-positive sera (biotinylated peptides on streptavidin- or avidin-coated plates, unbiotinylated peptides coated directly); format: binding, human; details: for PEPTIDE ELISA (O.D.): Table 12, biotinylated 20-mers
Summary of the method: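 Read-out is OD at 450 nm after HRP goat anti-human Ig and TMB development, following 1 h at 37° C. with seropositive or negative sera diluted 1:100 (or 20-fold). Antigen was either unbiotinylated peptide adsorbed on plastic (pH 9.6 carbonate, 2–5 or 3 μg/ml) or biotinylated peptide at 1 μg/ml captured on streptavidin-coated wells, with casein blocking.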

[2] = ELISA with seronegative / negative control sera (specificity); format: binding, human
Summary of the method: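 Specificity readout is OD at 450 nm (HRP goat anti-human Ig, TMB/H2O2, sulfuric acid stop), with ≥0.250 counted positive. Seronegative donor sera (typically 1:100, 1 h, 37° C) were applied to casein-blocked wells coated with peptide directly or via streptavidin capture of biotinylated peptide.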

## IIPDREVLYREFDEMEECSQ
[1]; Table 4F, serum 8315, 20-fold dilution
  optical density (450 nm): 2.672
[1]; Table 4F, serum 8316, 20-fold dilution
  optical density (450 nm): 0.367
[1]; Table 4F, serum 8317, 20-fold dilution
  optical density (450 nm): 1.634
[1]; Table 4F, serum 8318, 20-fold dilution
  optical density (450 nm): 2.431
[1]; Table 4F, serum 8320, 20-fold dilution
  optical density (450 nm): 0.896
[1]; Table 4F, serum 8321, 20-fold dilution
  optical density (450 nm): 0.457
[1]; Table 4F, serum 8326, 20-fold dilution
  optical density (450 nm): 2.540
[1]; Table 5, sample 8242 (positive), peptide concentration 0.01 micrograms per milliliter, listed as HCV peptide IX
  optical density (450 nm): 0.215
[1]; Table 5, sample 8242 (positive), peptide concentration 0.03 micrograms per milliliter, listed as HCV peptide IX
  optical density (450 nm): 0.496
[1]; Table 5, sample 8242 (positive), peptide concentration 0.1 micrograms per milliliter, listed as HCV peptide IX
  optical density (450 nm): 0.911
[1]; Table 5, sample 8242 (positive), peptide concentration 0.3 micrograms per milliliter, listed as HCV peptide IX
  optical density (450 nm): 0.795
[1]; Table 5, sample 8242 (positive), peptide concentration 1.0 micrograms per milliliter, listed as HCV peptide IX
  optical density (450 nm): 0.777
[1]; Table 5, sample 8242 (positive), peptide concentration 3.0 micrograms per milliliter, listed as HCV peptide IX
  optical density (450 nm): 0.791
[1]; Table 5, sample 8243 (positive), peptide concentration 0.01 micrograms per milliliter, listed as HCV peptide IX
  optical density (450 nm): 0.639
[1]; Table 5, sample 8243 (positive), peptide concentration 0.03 micrograms per milliliter, listed as HCV peptide IX
  optical density (450 nm): 1.421
[1]; Table 5, sample 8243 (positive), peptide concentration 0.1 micrograms per milliliter, listed as HCV peptide IX
  optical density (450 nm): 1.834
[1]; Table 5, sample 8243 (positive), peptide concentration 0.3 micrograms per milliliter, listed as HCV peptide IX
  optical density (450 nm): 1.892
[1]; Table 5, sample 8243 (positive), peptide concentration 1.0 micrograms per milliliter, listed as HCV peptide IX
  optical density (450 nm): 1.953
[1]; Table 5, sample 8243 (positive), peptide concentration 3.0 micrograms per milliliter, listed as HCV peptide IX
  optical density (450 nm): 1.959
[1]; Table 5, sample 8320 (positive), peptide concentration 0.01 micrograms per milliliter, listed as HCV peptide IX
  optical density (450 nm): 0.461
[1]; Table 5, sample 8320 (positive), peptide concentration 0.03 micrograms per milliliter, listed as HCV peptide IX
  optical density (450 nm): 1.007
[1]; Table 5, sample 8320 (positive), peptide concentration 0.1 micrograms per milliliter, listed as HCV peptide IX
  optical density (450 nm): 1.244
[1]; Table 5, sample 8320 (positive), peptide concentration 0.3 micrograms per milliliter, listed as HCV peptide IX
  optical density (450 nm): 1.798
[1]; Table 5, sample 8320 (positive), peptide concentration 1.0 micrograms per milliliter, listed as HCV peptide IX
  optical density (450 nm): 0.802
[1]; Table 5, sample 8320 (positive), peptide concentration 3.0 micrograms per milliliter, listed as HCV peptide IX
  optical density (450 nm): 1.779
[1]; Table 5, sample 8326 (positive), peptide concentration 0.01 micrograms per milliliter, listed as HCV peptide IX
  optical density (450 nm): 1.812
[1]; Table 5, sample 8326 (positive), peptide concentration 0.03 micrograms per milliliter, listed as HCV peptide IX
  optical density (450 nm): 2.193
[1]; Table 5, sample 8326 (positive), peptide concentration 0.1 micrograms per milliliter, listed as HCV peptide IX
  optical density (450 nm): 2.284
[1]; Table 5, sample 8326 (positive), peptide concentration 0.3 micrograms per milliliter, listed as HCV peptide IX
  optical density (450 nm): 2.271
[1]; Table 5, sample 8326 (positive), peptide concentration 1.0 micrograms per milliliter, listed as HCV peptide IX
  optical density (450 nm): 2.271
[1]; Table 5, sample 8326 (positive), peptide concentration 3.0 micrograms per milliliter, listed as HCV peptide IX
  optical density (450 nm): 2.284
[1]; Table 8, serum 8243 (HCV), Avidin
  optical density (450 nm): 1.213
[1]; Table 8, serum 8247 (HCV), Avidin
  optical density (450 nm): 0.756
[1]; Table 8, serum 8248 (HCV), Avidin
  optical density (450 nm): 0.047
[1]; Table 8, serum 8269 (HCV), Avidin
  optical density (450 nm): 0.051
[1]; Table 8, serum 8273 (HCV), Avidin
  optical density (450 nm): 0.053
[1]; Table 8, serum 8278 (HCV), Avidin
  optical density (450 nm): 0.074
[1]; Table 8, serum 8285 (HCV), Avidin
  optical density (450 nm): 0.270
[1]; Table 8, serum 8290 (HCV), Avidin
  optical density (450 nm): 0.048
[1]; Table 8, serum 8291 (HCV), Avidin
  optical density (450 nm): 0.052
[1]; serum 0843
  PEPTIDE ELISA (O.D.): 2.206
[1]; serum 8240
  PEPTIDE ELISA (O.D.): 0.142
[1]; serum 8241
  PEPTIDE ELISA (O.D.): 0.421
  antibody binding to the 20-mers: very strong
[1]; serum 8242
  PEPTIDE ELISA (O.D.): 2.114
[1]; serum 8332
  PEPTIDE ELISA (O.D.): 0.392
[1]; serum 8339
  PEPTIDE ELISA (O.D.): 2.497
[1]; serum 8350
  PEPTIDE ELISA (O.D.): 1.779
[1]; serum 8377
  PEPTIDE ELISA (O.D.): 2.360
[1]; serum 8378
  PEPTIDE ELISA (O.D.): 1.859
[1]; serum 8388
  PEPTIDE ELISA (O.D.): 2.300
[2]; Table 4F, negative serum
  optical density (450 nm): 0.005
[2]; Table 5, sample 1747 (negative), peptide concentration 0.01 micrograms per milliliter, listed as HCV peptide IX
  optical density (450 nm): 0.043
[2]; Table 5, sample 1747 (negative), peptide concentration 0.03 micrograms per milliliter, listed as HCV peptide IX
  optical density (450 nm): 0.044
[2]; Table 5, sample 1747 (negative), peptide concentration 0.1 micrograms per milliliter, listed as HCV peptide IX
  optical density (450 nm): 0.042
[2]; Table 5, sample 1747 (negative), peptide concentration 0.3 micrograms per milliliter, listed as HCV peptide IX
  optical density (450 nm): 0.046
[2]; Table 5, sample 1747 (negative), peptide concentration 1.0 micrograms per milliliter, listed as HCV peptide IX
  optical density (450 nm): 0.049
[2]; Table 5, sample 1747 (negative), peptide concentration 3.0 micrograms per milliliter, listed as HCV peptide IX
  optical density (450 nm): 0.051
[2]; Table 5, sample 1781 (negative), peptide concentration 0.01 micrograms per milliliter, listed as HCV peptide IX
  optical density (450 nm): 0.049
[2]; Table 5, sample 1781 (negative), peptide concentration 0.03 micrograms per milliliter, listed as HCV peptide IX
  optical density (450 nm): 0.048
[2]; Table 5, sample 1781 (negative), peptide concentration 0.1 micrograms per milliliter, listed as HCV peptide IX
  optical density (450 nm): 0.047
[2]; Table 5, sample 1781 (negative), peptide concentration 0.3 micrograms per milliliter
  optical density (450 nm): 0.051
[2]; Table 5, sample 1781 (negative), peptide concentration 1.0 micrograms per milliliter, listed as HCV peptide IX
  optical density (450 nm): 0.051
[2]; Table 5, sample 1781 (negative), peptide concentration 3.0 micrograms per milliliter
  optical density (450 nm): 0.053
[2]; Table 8, serum 1782 (blood donor), Avidin
  optical density (450 nm): 0.062
[2]; Table 8, serum 1784 (blood donor), Avidin
  optical density (450 nm): 0.050
[2]; Table 8, serum 1785 (blood donor), Avidin
  optical density (450 nm): 0.050
[2]; Table 8, serum 1794 (blood donor), Avidin
  optical density (450 nm): 0.098
